Measured values published in US20250250230A1, “HETEROCYCLIC COMPOUND” (TAKEDA PHARMACEUTICAL COMPANY LIMITED, priority 2022, published 2025).

Target: T1, human orexin type 2 receptor (Homo sapiens, UniProt O43614)
T1 construct: expressed in transfected cells
T1 sequence (O43614 1-444): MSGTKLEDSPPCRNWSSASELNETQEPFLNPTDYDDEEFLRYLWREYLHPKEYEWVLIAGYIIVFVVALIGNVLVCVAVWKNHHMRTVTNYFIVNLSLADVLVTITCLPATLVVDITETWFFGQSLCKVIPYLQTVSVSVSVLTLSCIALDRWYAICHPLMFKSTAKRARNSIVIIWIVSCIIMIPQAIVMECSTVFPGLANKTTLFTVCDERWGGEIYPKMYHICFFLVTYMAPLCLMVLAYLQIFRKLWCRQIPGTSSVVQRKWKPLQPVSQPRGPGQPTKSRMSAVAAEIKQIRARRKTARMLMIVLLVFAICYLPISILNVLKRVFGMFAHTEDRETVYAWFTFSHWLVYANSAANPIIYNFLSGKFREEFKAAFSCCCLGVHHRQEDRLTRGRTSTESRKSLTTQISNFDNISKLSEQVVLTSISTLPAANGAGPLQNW
Experiment: Measurement of orexin type 2 receptor agonist activity (calcium fluorescence, Fluo-4 AM, FDSS)
Assay type: cell-based
Conditions: test compound 3 μM; CHO cells expressing human OX2 receptor; DMSO = 0%, orexin A (human) = 100%
Procedure, shortened: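 Agonist response scaled between vehicle (0%) and human orexin A at 10 nM final (100%), from 2-min kinetic Fluo-4 fluorescence reads. Stable hOX2R CHO-K1 clone, dye-loaded in HBSS/20 mM HEPES/0.1% BSA with 1.25 mM probenecid before compound addition.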

Row | SMILES | OX2R agonist activity (3 μM, %) [%]
1 | CC(O)[C@@H]1CN(C(=O)[C@@H]2C[C@@]2(F)c2ccccc2-c2c(F)cccc2F)[C@H]1CNS(C)(=O)=O (mixture of isomers) [Example 404, a mixture of N-{[(2R,3R)-1-[(1S,2S)-2-(2′,6′-difluoro[1,1′-biphenyl]-2-yl)-2-fluorocyclopropane-1-carbonyl]-3-[(1R)-1-hydroxyethyl]azetidin-2-yl]methyl}methanesulfonamide and N-{[(2R,3R)-1-[(1S,2S)-2-(2′,6′-difluoro[1,1′-biphenyl]-2-yl)-2-fluorocyclopropane-1-carbonyl]-3-[(1S)-1-hydroxyethyl]azetidin-2-yl]methyl}methanesulfonamide] | 95
2 | CS(=O)(=O)N[C@H]1CCCN(C(=O)[C@@H]2C[C@H]2c2ccccc2-c2c(F)cccc2F)CC1 [Example 25, N-{(4S)-1-[(1R,2R)-2-(2′,6′-difluoro[1,1′-biphenyl]-2-yl)cyclopropane-1-carbonyl]azepan-4-yl}methanesulfonamide] | 93
3 | Cc1cc(-c2c(F)cccc2F)c(C2CC2C(=O)N2CCCC(NS(C)(=O)=O)C2)cn1 (racemic) [Example 267, a mixture of rac-N-[(3R)-1-{(1R,2R)-2-[4-(2,6-difluorophenyl)-6-methylpyridin-3-yl]cyclopropane-1-carbonyl}piperidin-3-yl]methanesulfonamide and rac-N-[(3S)-1-{(1R,2R)-2-[4-(2,6-difluorophenyl)-6-methylpyridin-3-yl]cyclopropane-1-carbonyl}piperidin-3-yl]methanesulfonamide] | 87
4 | C[C@@H]1CN(C(=O)[C@@H]2C[C@@]2(F)c2ccccc2-c2c(F)cccc2F)[C@H]1CNS(C)(=O)=O [Example 357, N-({(2R,3R)-1-[(1S,2S)-2-(2′,6′-difluoro[1,1′-biphenyl]-2-yl)-2-fluorocyclopropane-1-carbonyl]-3-methylazetidin-2-yl}methyl)methanesulfonamide] | 96
5 | CCS(=O)(=O)NCC1CCN1C(=O)C1CC1c1ccccc1-c1c(F)cccc1F (racemic) [Example 203, a mixture of rac-N-({(2R)-1-[(1R,2R)-2-(2′,6′-difluoro[1,1′-biphenyl]-2-yl)cyclopropane-1-carbonyl]azetidin-2-yl}methyl)ethanesulfonamide and rac-N-({(2S)-1-[(1R,2R)-2-(2′,6′-difluoro[1,1′-biphenyl]-2-yl)cyclopropane-1-carbonyl]azetidin-2-yl}methyl)ethanesulfonamide] | 94
6 | Cc1ccc(C2CC2C(=O)N2CCCC(NS(C)(=O)=O)CC2)c(-c2c(F)cccc2F)c1 (racemic) [Example 167, a mixture of rac-N-{(4R)-1-[(1R,2R)-2-(2′,6′-difluoro-5-methyl[1,1′-biphenyl]-2-yl)cyclopropane-1-carbonyl]azepan-4-yl}methanesulfonamide and rac-N-{(4S)-1-[(1R,2R)-2-(2′,6′-difluoro-5-methyl[1,1′-biphenyl]-2-yl)cyclopropane-1-carbonyl]azepan-4-yl}methanesulfonamide] | 96
7 | CS(=O)(=O)NC[C@H]1CCN1C(=O)[C@@H]1C[C@@]1(F)c1ccccc1-c1c(F)cccc1F [Example 371, N-({(2R)-1-[(1S,2S)-2-(2′,6′-difluoro[1,1′-biphenyl]-2-yl)-2-fluorocyclopropane-1-carbonyl]azetidin-2-yl}methyl)methanesulfonamide] | 103
8 | CC1(C(=O)N2CCC2CNS(C)(=O)=O)CC1c1ccccc1-c1c(F)cccc1F (stereo not drawn) [Example 327, N-({1-[2-(2′,6′-difluoro[1,1′-biphenyl]-2-yl)-1-methylcyclopropane-1-carbonyl]azetidin-2-yl}methyl)methanesulfonamide optical isomer] | 100
